Where two headings read alike, the source gives them in different places.
Experiments:
[1] = system: PDAC tumor spheroids (Pa03C and Panc10.05) alone and with CAFs; assay: Three-dimensional growth assay, PDAC/CAF co-culture (Example 2); assay type: cell-based, human; conditions: tumor spheroids alone and in culture with CAFs
Protocol: Ninety-six well plates were coated with 1% Noble Agar (Difco) (50 μL/well). mCherry-labeled PDAC cells and EGFP-labeled CAFs were resuspended in normal growth media containing 3% Matrigel (BD Biosciences) at a cell ratio of 1:4 (tumor:CAF) and plated on top of solidified 1% Noble Agar. Cells were fed on Days 4 and 8 following plating with media containing 5% serum+3% Matrigel+investigational drug.
Utilizing APX3330, JAK 2 inhibitor (Ruxolitinib (INCB018424; Fisher Scientific) (“RUX”)) and lead STATS inhibitors (PG-S3-001, DR-4-89), the effects of Ref-1/STAT3 inhibition in PDAC low passage patient-derived cell lines (Pa03C and Panc10.05) were evaluated. The response using proliferation-based 3D co-culture assays and statistical analyses to assess synergy, additively or antagonism was evaluated using the Chou-Talalay method.
This Example was designed to visualize the same live co-cultures over 12 days with images captured by Thermo ArrayScan at 8 and 12 days of co-culture. Cancer and stromal cells in this model were marked with distinct fluorescent proteins (mCherry for tumor and EGFP for CAFs) so that the cell populations could be differentiated and quantified. […] In this way, drug efficacy of PDAC cells could be evaluated in co-culture with CAFs, which more faithfully mimics the natural in vivo PDAC environment.

CA9 mRNA [2] = conditions: Panc-1 and MIA-PaCa2 cells exposed to hypoxia, previously shown; cited from earlier work
CA9 protein = assay: Western blot of CA9 protein in 3D tumor spheroid cultures with or without CAFs; assay type: cell-based, human; conditions: Pa03C 3D tumor cultures, in the presence and absence of CAF cells
Protocol: Western Blot Analysis: Western blots were performed as described in Wang, Luo et al. (2004) Mol Cancer Ther 3(6): 679-686; Fishel, He et al. (2008) DNA Repair (Amst) 7(2): 177-186; Fishel, Colvin et al. (2010) Hematol 38(12): 1178-1188; Jiang, Zhou et al. (2010) Cancer Investigation 28(9): 885-895; Fishel, Jiang et al. (2011) Molecular Cancer Therapeutics 10(9): 1698-1708; Cardoso, Jiang et al. (2012) PLoS ONE 10: e47462; Fishel, Wu et al. (2015) J Biol Chem 290(5): 3057-3068, with antibodies for APE1/Ref-1 (Novus Biologicals; Littleton, Colo.), HIF1α (GeneTex; Irvine, Calif.), STAT1, STATS, (Cell Signaling; Danvers, Mass.), NFκB (abcam; Cambridge, Mass.), CA9 (Santa Cruz; Dallas, Tex.) and Vinculin (Sigma; St. Louis, Mo.).
3D Co-Cultures: Ultra low attachment 96-well plates (Corning Inc., Life Sciences) were used to generate 3-dimensional tumor spheroids in the presence and absence of CAFs (75 μL/well) as described previously (Sempere, Gunn et al. (2011) Cancer Biol Ther 12(3): 198-207; Arpin, Mac et al. (2015) Molecular Cancer Therapeutics). […] On Day 12, spheroids were analyzed using Thermo ArrayScan high-content imaging system (Lovborg, Nygren et al. (2004) Mol Cancer Ther 3(5): 521-526; Lindblom, Berg et al. (2012) Toxicol Pathol 40(1): 18-32). […]

CA9 mRNA [3] = assay: qRT-PCR of CA9 mRNA levels under hypoxia; assay type: cell-based, human; conditions: 24 hours of exposure to APX3330 and 1% oxygen
Protocol: qRT-PCR Reactions: qRT-PCR was used to measure the mRNA expression levels of CA9 as described in Fishel, Jiang et al. (2011) Molecular Cancer Therapeutics 10(9): 1698-1708. Cells were treated with APE1/Ref-1 siRNA or increasing amounts of APX3330 in the presence or absence of hypoxia (1% and 0.2% O2) for 24 hours, then total RNA was extracted from cells using the QiagenRNeasy Mini kit (Valencia, Calif.). First-strand cDNA synthesis and quantitative PCR were performed as described in Fishel, Vasko et al. (2007) Mutat Res 614(1-2): 24-36; Jiang, Guo et al. (2009) DNA Repair (Amst) 8(11): 1273-1282; Fishel, Jiang et al. (2011) Molecular Cancer Therapeutics 10(9): 1698-1708. The relative quantitative mRNA level was determined using the comparative Ct method using 18S rRNA, RPLPO, and B2M as reference genes (Livak and Schmittgen (2001) Methods 25(4): 402-408; Fishel, Vasko et al. (2007) Mutat Res 614(1-2): 24-36; Jiang, Guo et al. (2009) DNA Repair (Amst) 8(11): 1273-1282). The primers for CA9, 18S, RPLPO, and B2M are commercially available (Applied Biosystems).

[4] = system: Pa03C and Panc10.05 tumor spheroids with or without CAFs; assay: 3D co-culture tumor spheroid model (Example 1); assay type: cell-based, human; conditions: for tumor cell killing (reduction in area of tumor cells): 3D spheroids, 12 days in culture, with and without CAFs
Protocol: 3D Co-Cultures: Ultra low attachment 96-well plates (Corning Inc., Life Sciences) were used to generate 3-dimensional tumor spheroids in the presence and absence of CAFs (75 μL/well) as described previously (Sempere, Gunn et al. (2011) Cancer Biol Ther 12(3): 198-207; Arpin, Mac et al. (2015) Molecular Cancer Therapeutics). Cells were stably transduced with EGFP (green) or TdTomato (red) as indicated to preserve the genetic characteristics of the low passage patient cells (Jones, Zhang et al. (2008) Science 321(5897): 1801-1806). Cells were re-suspended in colorless DMEM growth media containing 3% Reduced Growth Factor Matrigel (RGF, BD Biosciences) and 5% FBS. Following plating, cells were treated on Days 4 and 8 with media containing 5% serum, 3% RGF Matrigel, and inhibitors as indicated. On Day 12, spheroids were analyzed using Thermo ArrayScan high-content imaging system (Lovborg, Nygren et al. (2004) Mol Cancer Ther 3(5): 521-526; Lindblom, Berg et al. (2012) Toxicol Pathol 40(1): 18-32). Images of 3D structures were captured by ArrayScan using a 2.5× objective for TdTomato and EGFP; then 2D projections were processed to quantify differences in total intensity and total area of both CAFs and tumor.

Pa02C cells = assay: Alamar Blue cell proliferation in monolayer under hypoxia; assay type: cell-based, human; conditions: hypoxia (0.2%) for six days, single agent
Protocol: Cell Proliferation: PDAC cell proliferation in monolayer was measured using the Alamar Blue assay as described in Fishel, Wu et al. (2015) J Biol Chem 290(5): 3057-3068. Cells treated with APX3330 and SLC-0111 were exposed to hypoxia for six days followed by addition of Alamar Blue reagent (Invitrogen) and subsequent fluorescence analysis. Fold change refers to the fluorescence reading for cells treated with indicated inhibitors compared to cells growing in normal media.

PDAC = assay: Single-agent STAT3 inhibitor activity in vivo (FIG. 14)

SMILES | killing of tumor spheroids [1] | CA9 mRNA levels (CA9 mRNA [2]) | CA9 expression (protein) (CA9 protein) | CA9 mRNA levels (CA9 mRNA [3]; Pa03C cells) | CA9 mRNA levels (CA9 mRNA [3]; pancreatic CAF cells) | tumor cell killing (reduction in area of tumor cells) [4] | PDAC cell proliferation (Pa02C cells) | activity in vivo (PDAC) | cell killing in tumor cells versus CAFs ([4]; 3D co-culture, especially CAF19 with Pa03C)
CCCCCCCCCC(=CC1=C(C)C(=O)C(OC)=C(OC)C1=O)C(=O)O [APX3330] | effectively killed both tumor spheroids alone and in culture with CAFs | decreases | decreased CA9 expression in 3D tumor cultures in a dose-dependent manner | attenuated in a dose-dependent manner | attenuated in a dose-dependent manner | decrease in tumor cell area | dose-dependent decrease |  | 
CC(C)C(C(=O)N(Cc1ccc(C2CCCCC2)cc1)c1ccc(C(=O)O)cc1)N(C)S(=O)(=O)c1c(F)c(F)c(F)c(F)c1F (centres unmarked) [PG-S3-001, reference compound] | effectively killed both tumor spheroids alone and in culture with CAFs |  |  |  |  |  |  | some activity was observed in vivo | 
NS(=O)(=O)c1ccc(NC(=O)Nc2ccc(F)cc2)cc1 [SLC-0111] |  |  |  |  |  | dramatic effects on tumor cell killing observed at lower doses than in a monolayer |  |  | more dramatic in the tumor cells than in the CAFs

— US10772859B2, “Methods of targeting APE/Ref-1 to inhibit hypoxia signaling genes” (Indiana University Research and Technology Corporation, priority 2015, dated 2020)
